# How the values were obtained:
# Assay in all cases: relative viability (nuclei count vs DMSO), 5 days (fraction); higher = more cells survive
# ABC-1 = test system: ABC-1
# Procedure, shortened: (§1)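 After 5 days of treatment, lung cancer cells in 1536-well plates were fixed and stained in a single step (final 0.05% Triton X-100, 1% formaldehyde, 1 ug/ml Hoechst) and their nuclei counted on 4× images. Treatment had been applied by pin tool the day after seeding as one drug alone or as a fixed anchor-drug dose with five library-drug doses (not always all listed) in √10 steps. Relative viability is the nuclei count of treated wells divided by that of vehicle wells, and values are medians of duplicate plates.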
# COR-L23 = test system: COR-L23
# Procedure, shortened: as §1
# EPLC-272H = test system: EPLC-272H
# Procedure, shortened: as §1
# HARA = test system: HARA
# Procedure, shortened: as §1
# HCC-15 = test system: HCC-15
# Procedure, shortened: as §1
# HCC-44 = test system: HCC-44
# Procedure, shortened: as §1
# HOP-62 = test system: HOP-62
# Procedure, shortened: as §1
# LC-2-ad = test system: LC-2-ad
# Procedure, shortened: as §1
# LU99A = test system: LU99A
# Procedure, shortened: as §1
# NCI-H1355 = test system: NCI-H1355
# Procedure, shortened: as §1
# NCI-H1651 = test system: NCI-H1651
# Procedure, shortened: as §1
# NCI-H1915 = test system: NCI-H1915
# Procedure, shortened: as §1
# NCI-H1993 = test system: NCI-H1993
# Procedure, shortened: as §1
# NCI-H2023 = test system: NCI-H2023
# Procedure, shortened: as §1
# NCI-H2085 = test system: NCI-H2085
# Procedure, shortened: as §1
# NCI-H2126 = test system: NCI-H2126
# Procedure, shortened: as §1
# NCI-H2347 = test system: NCI-H2347
# Procedure, shortened: as §1
# NCI-H650 = test system: NCI-H650
# Procedure, shortened: as §1
# NCI-H838 = test system: NCI-H838
# Procedure, shortened: as §1
# PC-14 = test system: PC-14
# Procedure, shortened: as §1
# SW 1573 = test system: SW 1573
# Procedure, shortened: as §1
# UMC-11 = test system: UMC-11
# Procedure, shortened: as §1
smiles,measurement,setting,value
COc1cc2nccc(Oc3ccc(NC(=O)Nc4cc(C)on4)c(Cl)c3)c2cc1OC [Tivozanib] + C[C@]1(O)C[C@@H](c2nc(-c3ccc4ccc(-c5ccccc5)nc4c3)c3c(N)nccn32)C1 [Linsitinib] (partner 1 µM),relative viability,ABC-1; first compound 0.005 µM,0.716
same,relative viability,ABC-1; first compound 0.01581 µM,0.887
same,relative viability,ABC-1; first compound 0.05 µM,0.676
same,relative viability,ABC-1; first compound 0.1581 µM,0.745
same,relative viability,ABC-1; first compound 0.5 µM,0.783
same,relative viability,COR-L23; first compound 0.005 µM,0.848
same,relative viability,COR-L23; first compound 0.01581 µM,0.886
same,relative viability,COR-L23; first compound 0.05 µM,0.994
same,relative viability,COR-L23; first compound 0.1581 µM,0.887
same,relative viability,COR-L23; first compound 0.5 µM,0.819
same,relative viability,EPLC-272H; first compound 0.005 µM,1.1
same,relative viability,EPLC-272H; first compound 0.01581 µM,1.14
same,relative viability,EPLC-272H; first compound 0.05 µM,1.17
same,relative viability,EPLC-272H; first compound 0.1581 µM,0.955
same,relative viability,EPLC-272H; first compound 0.5 µM,1.12
same,relative viability,HARA; first compound 0.005 µM,0.915
same,relative viability,HARA; first compound 0.01581 µM,0.838
same,relative viability,HARA; first compound 0.05 µM,1.11
same,relative viability,HARA; first compound 0.1581 µM,1.01
same,relative viability,HARA; first compound 0.5 µM,0.99
same,relative viability,HCC-15; first compound 0.005 µM,0.9
same,relative viability,HCC-15; first compound 0.01581 µM,0.878
same,relative viability,HCC-15; first compound 0.05 µM,0.9
same,relative viability,HCC-15; first compound 0.1581 µM,0.875
same,relative viability,HCC-15; first compound 0.5 µM,0.897
same,relative viability,HCC-44; first compound 0.005 µM,0.66
same,relative viability,HCC-44; first compound 0.01581 µM,0.687
same,relative viability,HCC-44; first compound 0.05 µM,0.641
same,relative viability,HCC-44; first compound 0.1581 µM,0.679
same,relative viability,HCC-44; first compound 0.5 µM,0.685
same,relative viability,HOP-62; first compound 0.005 µM,0.87
same,relative viability,HOP-62; first compound 0.01581 µM,0.929
same,relative viability,HOP-62; first compound 0.05 µM,1.16
same,relative viability,HOP-62; first compound 0.1581 µM,0.932
same,relative viability,HOP-62; first compound 0.5 µM,0.988
same,relative viability,LC-2-ad; first compound 0.005 µM,0.86
same,relative viability,LC-2-ad; first compound 0.01581 µM,0.791
same,relative viability,LC-2-ad; first compound 0.05 µM,0.73
same,relative viability,LC-2-ad; first compound 0.1581 µM,0.526
same,relative viability,LC-2-ad; first compound 0.5 µM,0.616
same,relative viability,LU99A; first compound 0.005 µM,0.517
same,relative viability,LU99A; first compound 0.01581 µM,0.506
same,relative viability,LU99A; first compound 0.05 µM,0.581
same,relative viability,LU99A; first compound 0.5 µM,0.534
same,relative viability,NCI-H1355; first compound 0.005 µM,0.776
same,relative viability,NCI-H1355; first compound 0.01581 µM,0.809
same,relative viability,NCI-H1355; first compound 0.05 µM,0.895
same,relative viability,NCI-H1355; first compound 0.5 µM,0.844
same,relative viability,NCI-H1651; first compound 0.005 µM,0.929
same,relative viability,NCI-H1651; first compound 0.01581 µM,0.988
same,relative viability,NCI-H1651; first compound 0.05 µM,0.87
same,relative viability,NCI-H1651; first compound 0.1581 µM,0.949
same,relative viability,NCI-H1651; first compound 0.5 µM,0.963
same,relative viability,NCI-H1915; first compound 0.005 µM,1.08
same,relative viability,NCI-H1915; first compound 0.01581 µM,1.14
same,relative viability,NCI-H1915; first compound 0.05 µM,1.12
same,relative viability,NCI-H1915; first compound 0.1581 µM,1.07
same,relative viability,NCI-H1915; first compound 0.5 µM,1.05
same,relative viability,NCI-H1993; first compound 0.005 µM,0.698
same,relative viability,NCI-H1993; first compound 0.01581 µM,0.777
same,relative viability,NCI-H1993; first compound 0.05 µM,0.79
same,relative viability,NCI-H1993; first compound 0.1581 µM,0.638
same,relative viability,NCI-H1993; first compound 0.5 µM,0.758
same,relative viability,NCI-H2023; first compound 0.005 µM,0.612
same,relative viability,NCI-H2023; first compound 0.01581 µM,0.669
same,relative viability,NCI-H2023; first compound 0.05 µM,0.761
same,relative viability,NCI-H2023; first compound 0.1581 µM,0.671
same,relative viability,NCI-H2023; first compound 0.5 µM,0.715
same,relative viability,NCI-H2085; first compound 0.005 µM,0.917
same,relative viability,NCI-H2085; first compound 0.01581 µM,0.854
same,relative viability,NCI-H2085; first compound 0.05 µM,1.06
same,relative viability,NCI-H2085; first compound 0.1581 µM,0.781
same,relative viability,NCI-H2085; first compound 0.5 µM,0.877
same,relative viability,NCI-H2126; first compound 0.005 µM,0.651
same,relative viability,NCI-H2126; first compound 0.01581 µM,0.697
same,relative viability,NCI-H2126; first compound 0.05 µM,0.734
same,relative viability,NCI-H2126; first compound 0.1581 µM,0.52
same,relative viability,NCI-H2126; first compound 0.5 µM,0.747
same,relative viability,NCI-H2347; first compound 0.005 µM,0.711
same,relative viability,NCI-H2347; first compound 0.01581 µM,0.897
same,relative viability,NCI-H2347; first compound 0.05 µM,0.966
same,relative viability,NCI-H2347; first compound 0.1581 µM,1.1
same,relative viability,NCI-H2347; first compound 0.5 µM,0.92
same,relative viability,NCI-H650; first compound 0.005 µM,0.671
same,relative viability,NCI-H650; first compound 0.01581 µM,0.992
same,relative viability,NCI-H650; first compound 0.05 µM,0.859
same,relative viability,NCI-H650; first compound 0.1581 µM,0.736
same,relative viability,NCI-H650; first compound 0.5 µM,0.542
same,relative viability,NCI-H838; first compound 0.005 µM,0.963
same,relative viability,NCI-H838; first compound 0.01581 µM,1.04
same,relative viability,NCI-H838; first compound 0.05 µM,1.11
same,relative viability,NCI-H838; first compound 0.5 µM,0.942
same,relative viability,PC-14; first compound 0.005 µM,0.939
same,relative viability,PC-14; first compound 0.01581 µM,0.957
same,relative viability,PC-14; first compound 0.05 µM,1.06
same,relative viability,PC-14; first compound 0.1581 µM,1.01
same,relative viability,PC-14; first compound 0.5 µM,1.01
same,relative viability,SW 1573; first compound 0.005 µM,0.896
same,relative viability,SW 1573; first compound 0.01581 µM,0.826
same,relative viability,SW 1573; first compound 0.05 µM,0.921
same,relative viability,SW 1573; first compound 0.1581 µM,0.819
same,relative viability,SW 1573; first compound 0.5 µM,0.86
same,relative viability,UMC-11; first compound 0.005 µM,1.08
same,relative viability,UMC-11; first compound 0.01581 µM,1.01
same,relative viability,UMC-11; first compound 0.05 µM,1.06
same,relative viability,UMC-11; first compound 0.5 µM,0.997
